The test system of assay [1] is rice callus cells. Description: Selection of transformed rice callus cells and plants, Agrobacterium method (vector pUb-OSASA1D). Type of assay: cell-based, rice (variety: Nihonbare). The procedure: Preparation of Agrobacterium bacterium was carried out in the same manner as in Example 3(4) using the recombinant vector pUb-OSASA1D mentioned in the above (1). Preparation of rice callus cells was carried out in the same manner as in Example 3(5). And, gene introduction into the rice callus cells was carried out in the same manner as in Example 3(6).
The obtained calli as transformed with the recombinant vector were washed with sterilized water containing 500 mg/l carbenicillin, to remove the Agrobacterium bacterium. After removal of excess water, the calli (20 calli per petri dish, 500 calli in total) were transplanted to a solid medium as prepared by adding 30 g/l sucrose, 2 mg/l 2,4-PA, 500 mg/l carbenicillin, 2 g/l Gerite and 3×10^−4 M 5MT as a selective drug, to the inorganic salt composition of N6 medium. […]
(§1) After one month of cultivation, the number of the transformed calli thus selected was counted. […]
The transformed calli as selected by the above cultivation in view of their 5MT resistance were transplanted to a solid regeneration medium which was prepared by adding 30 g/l sucrose, 30 g/l sorbitol, 2 g/l casamino acid, 1 mg/l NAA, 2 mg/l BA, 4 g/l Gel lite and3×10^−4M 5MT to the inorganic salt composition of MS medium. […] The number of the transformed plants regenerated from the transformed calluses was counted. […]

Assay [2] relates to rice callus cells. As to the kind of experiment: Selection of transformed rice callus cells and plants, direct introduction using whiskers (vector pUBdD). Type of assay: cell-based, rice (variety: Nihonbare). The procedure:
Ripe seeds of rice (variety: Nihonbare) were hulled, and the resulting seeds with coats were sterilized by immersion in a 70% ethanol solution for 60 seconds and then in a sodium hypochlorite solution containing about 1% effective chlorine for 6 minutes, followed by washing with sterilized water.
The thus sterilized rice seeds were placed on a medium as prepared by adding 30 g/l sucrose, 2 mg/l 2,4-PA as a phytohormone and 8 g/l agar to the inorganic component composition of MS medium. Incubation of seeds was carried out at 28° C. for 45 days with irradiation with light at 2000 lx for 16 hours per day, to form callus. The formed calli were cut from the albumen of the seeds, and those calli having a size of 1 mm or less were obtained in an amount of 3 ml in term of PCV (Packed Cell Volume), with using a stainless steel sieve (mesh size: 1 mm).
Separately, […] of potassium titanate whiskers (LS20, Titan Kogyo K.K.) was put into a 1.5-ml tube, and 0.5 ml of ethanol was added thereto. The mixture was allowed to stand overnight, and ethanol was evaporated completely to obtain sterilized whiskers. To this tube containing the whiskers was added 1 ml of sterilized water, followed by sufficient stirring. […]
as §1

The mark [3] stands for this setting: 30 days on regeneration medium with selective drug (3×10^−4 M 5MT, or 50 mg/l hygromycin in control group).

For `Cc1ccc2[nH]cc(C[C@H](N)C(=O)O)c2c1` [Test Group, 5-methyltryptophan], the “Transformed Callus Cells Selected” value with rice callus cells [1] (500 calli tested, one month on selective medium (3×10^−4 M 5MT, or 50 mg/l hygromycin in control group)) is reported as 45; with rice callus cells [2] (2000 divided cells tested, one month on selective medium (10^−4 M 5MT, or 50 mg/l hygromycin in control group)), 102. For the same molecule, the results for the “Transformed Plants Selected” value in the assay on rice callus cells [1] (setting [3]) and with rice callus cells [2] (setting [3]) were 43 and 85, respectively.

Source of the values: patent US6388174B1, “Gene encoding α-subunit of rice anthranilate synthase and DNA relating thereto” (Hokko Chemical Industry Co., Ltd., priority 1997, dated 2002).
